Laboratory results taken from paper PMC10716780, “The multistep oxidation of cholesterol to pregnenolone by human cytochrome P450 11A1 is highly processive” (The Journal of Biological Chemistry, 2023).
Several values for one entry are separate records, joined by “and”; a condition that tells them apart may be missing. Equal values may be shown once.

Target: T1, human P450 11A1 (Homo sapiens, UniProt P05108)
T1 sequence (P05108 41-521 limits assumed): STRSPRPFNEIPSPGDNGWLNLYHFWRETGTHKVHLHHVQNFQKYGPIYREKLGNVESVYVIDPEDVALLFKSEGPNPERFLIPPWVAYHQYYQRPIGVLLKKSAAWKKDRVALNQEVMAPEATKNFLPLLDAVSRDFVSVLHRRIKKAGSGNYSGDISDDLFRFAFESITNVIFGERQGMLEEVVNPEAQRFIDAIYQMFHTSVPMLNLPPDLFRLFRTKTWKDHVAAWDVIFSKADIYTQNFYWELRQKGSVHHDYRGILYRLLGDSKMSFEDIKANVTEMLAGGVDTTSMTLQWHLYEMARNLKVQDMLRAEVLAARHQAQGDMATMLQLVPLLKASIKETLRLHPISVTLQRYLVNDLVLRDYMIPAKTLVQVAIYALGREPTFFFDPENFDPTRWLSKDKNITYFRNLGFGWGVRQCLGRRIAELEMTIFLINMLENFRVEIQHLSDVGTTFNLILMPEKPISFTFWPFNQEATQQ
T1 sequence (P00257 59-186 partner): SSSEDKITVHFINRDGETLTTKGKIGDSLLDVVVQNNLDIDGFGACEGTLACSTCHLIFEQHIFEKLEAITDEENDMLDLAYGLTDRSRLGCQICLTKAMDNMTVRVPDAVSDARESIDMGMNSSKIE
Experiment: Steady-state conversion of sterols to pregnenolone by reconstituted P450 11A1 (UPLC-MS of dansyl hydrazone)
Assay type: biochemical
Set-up: M A S T R S P R P F N E I P S P G D N; Met-Ala (N-terminal start residues in place of the transit peptide and Ile40) (N); made in house; host or cells: E. coli (P450 11A1 in C41(DE3); Adx and AdR in E. coli)
Settings: for Km / kcat / kcat (conversion of sterol to pregnenolone): 0.25 μM P450, 0.5 μM AdR, 10 μM Adx, 37 °C; for rate of pregnenolone formation: duplicate, raw data of Fig. 5
Procedure: Accordingly, all steady-state assays were done, unless otherwise noted, with a P450 11A1:Adx:AdR molar ratio of 1:40:2 (Fig. 2, that is, 0.25 μM P450, 10 μM Adx, and 0.5 μM AdR), in the absence of added lipid or detergent, and with the addition of sterol substrates in HPCD (stock 45% w/v).
As mentioned in the Introduction, many types of assays have been used to monitor the steady-state conversion of cholesterol to pregnenolone ([12], [14], [15], [16], [17], [18], [19], [20], [21]). A reliable and sensitive method was required that could be used for presteady-state reactions and was not reliant on the presence of isotope in cholesterol, in that, we also worked with 22R-OH cholesterol and 20R,22R-(OH)2 cholesterol as substrates. We utilized a method based on our work with P450 17A1 ([41], [42]), in which we derivatized the product pregnenolone as its dansyl hydrazone and separated it by ultra-performance liquid chromatography (UPLC) with detection by positive ion electrospray mass spectrometry (MS). The steroid dehydroepiandosterone (DHEA) was used an internal standard.
Reactions were performed by reconstituting P450 (0.25 μM), AdR (0.5 μM), and Adx (10 μM) on ice for 10 min prior to dilution in potassium Hepes buffer (50 mM, pH 7.4) and H2O and the addition of substrate (sterol, in HPCD (45% w/v)). Sterol dilutions were performed in HPCD to ensure that the HPCD composition was equal throughout all incubations (final 4.5% w/v). The reaction mixture was split between vials (425 μl in each), and reactions were preincubated (37 °C, 5 min) prior to initiation (75 μl) with an NADPH-generating system (0.5 mM NADP^+, 10 mM glucose 6-phosphate, and 2 μg ml^−1 glucose 6-phosphate dehydrogenase) ([61]). Reactions (5 min) were terminated by extraction into CH2Cl2 (2 ml) and transferred to an ice bath. After the experiment was complete, the quenched reactions were subjected to centrifugation (10^3g, 5 min, 23 °C) to separate layers, the organic (bottom) layer of each sample was removed (1.6 ml) to fresh glass vials, and the samples were brought to dryness under a stream of nitrogen.
Steroid extracts were subsequently derivatized with dansylhydrazine and analyzed as described previously ([42]). Briefly, the dried residue was resuspended (200 μl) in C2H5OH (fortified with 0.1% v/v CF3CO2H, as the derivatization reaction is H^+-catalyzed) and mixed with a vortex device. Samples were transferred to 1.5 ml amber glass vials, solutions of dansylhydrazine (10 mM) and DHEA, 10 μM, as internal standard) were added, and vials were capped, mixed with a vortex device, and incubated in the dark overnight (∼16 h, 23 °C). The derivatization reaction was quenched with acetone […], briefly incubated in the dark (∼30 min, 23 °C), and was then neutralized with base (250 μl of 0.5 M NaOH) and extracted into CH2Cl2 (1 ml). The samples were mixed with a vortex device and the organic (bottom) layer was removed (0.8 ml) to clean amber vials. Solvent was again removed under nitrogen, and the dried residue was dissolved in a mobile phase (100 μl) of 0.1% CF3CO2H in aqueous CH3CN (50%, v/v) for analysis.
Samples were injected (10 μl, held at 25 °C) on a 2.1 mm × 50 mm (1.7 μm) Acquity BEH octadecylsilane (C18) column (held at 40 °C) using a Waters Acquity UPLC with a flow rate of 0.2 ml min^−1 and a gradient mobile phase of (A) 0.1% aqueous HCO2H and (B) CH3CN as follows (all %B, v/v): 0 min, 40%; 0.5 min, 40%; 8 min, 100%; 8.5 min, 95%; 9 min, 100%; 9.1 min, 40%; and 10 min, 40%.

## CC(C)CC[C@@H](O)[C@@H](C)[C@H]1CC[C@H]2[C@@H]3CC=C4C[C@@H](O)CC[C@]4(C)[C@H]3CC[C@]12C [22R-OH Chol, 22R-hydroxycholesterol]
  Km: 29 ± 3 µM
  kcat: 9.1 ± 0.3 min⁻¹
  kcat (conversion of sterol to pregnenolone): 0.15 ± 0.01 s⁻¹
Substrate 2.5 µM, listed as 22R-OH Cholesterol
  rate of pregnenolone formation: 1.34 min⁻¹ and 1.02 min⁻¹
Substrate 5 µM, listed as 22R-OH Cholesterol
  rate of pregnenolone formation: 1.68 min⁻¹ and 1.48 min⁻¹
Substrate 7.5 µM, listed as 22R-OH Cholesterol
  rate of pregnenolone formation: 1.94 min⁻¹ and 2.15 min⁻¹
Substrate 15 µM, listed as 22R-OH Cholesterol
  rate of pregnenolone formation: 3.15 min⁻¹ and 3.07 min⁻¹
Substrate 20 µM, listed as 22R-OH Cholesterol
  rate of pregnenolone formation: 3.29 min⁻¹ and 3.38 min⁻¹
Substrate 30 µM, listed as 22R-OH Cholesterol
  rate of pregnenolone formation: 4.66 min⁻¹ and 5.17 min⁻¹
Substrate 40 µM
  rate of pregnenolone formation: 5.08 min⁻¹
Substrate 50 µM, listed as 22R-OH Cholesterol
  rate of pregnenolone formation: 5.23 min⁻¹ and 5.80 min⁻¹
Substrate 75 µM, listed as 22R-OH Cholesterol
  rate of pregnenolone formation: 6.76 min⁻¹ and 6.27 min⁻¹
Substrate 100 µM, listed as 22R-OH Cholesterol
  rate of pregnenolone formation: 7.41 min⁻¹ and 6.71 min⁻¹
Substrate 150 µM, listed as 22R-OH Cholesterol
  rate of pregnenolone formation: 7.68 min⁻¹ and 8.05 min⁻¹

## CC(C)CC[C@@H](O)[C@](C)(O)[C@H]1CC[C@H]2[C@@H]3CC=C4C[C@@H](O)CC[C@]4(C)[C@H]3CC[C@]12C [20R,22R-(OH)2 Chol, (20R,22R)-Cholest-5-ene-3β,20,22-triol]
  Km: 36 ± 7 µM
  kcat: 14 ± 1 min⁻¹
  kcat (conversion of sterol to pregnenolone): 0.23 ± 0.02 s⁻¹
Steady state
  kcat and kcat/Km relative to starting substrate cholesterol (greater): ~2 fold
Substrate 5 µM, listed as 20R,22R-(OH)2 Cholesterol
  rate of pregnenolone formation: 2.46 min⁻¹ and 2.24 min⁻¹
Substrate 7.5 µM, listed as 20R,22R-(OH)2 Cholesterol
  rate of pregnenolone formation: 2.57 min⁻¹ and 2.85 min⁻¹
Substrate 15 µM, listed as 20R,22R-(OH)2 Cholesterol
  rate of pregnenolone formation: 3.83 min⁻¹ and 4.18 min⁻¹
Substrate 20 µM, listed as 20R,22R-(OH)2 Cholesterol
  rate of pregnenolone formation: 4.26 min⁻¹ and 5.83 min⁻¹
Substrate 30 µM, listed as 20R,22R-(OH)2 Cholesterol
  rate of pregnenolone formation: 5.47 min⁻¹ and 6.23 min⁻¹
Substrate 40 µM, listed as 20R,22R-(OH)2 Cholesterol
  rate of pregnenolone formation: 7.20 min⁻¹ and 6.21 min⁻¹
Substrate 50 µM, listed as 20R,22R-(OH)2 Cholesterol
  rate of pregnenolone formation: 6.51 min⁻¹ and 8.53 min⁻¹
Substrate 75 µM, listed as 20R,22R-(OH)2 Cholesterol
  rate of pregnenolone formation: 7.45 min⁻¹ and 10.26 min⁻¹
Substrate 100 µM, listed as 20R,22R-(OH)2 Cholesterol
  rate of pregnenolone formation: 12.01 min⁻¹ and 10.27 min⁻¹
Substrate 150 µM, listed as 20R,22R-(OH)2 Cholesterol
  rate of pregnenolone formation: 9.70 min⁻¹ and 11.61 min⁻¹

## CC(C)CCC[C@@H](C)[C@H]1CC[C@H]2[C@@H]3CC=C4C[C@@H](O)CC[C@]4(C)[C@H]3CC[C@]12C [Cholesterol]
  Km: 38 ± 6 µM
  kcat: 6.9 ± 0.5 min⁻¹
  kcat (conversion of sterol to pregnenolone): 0.12 ± 0.01 s⁻¹
Listed as cholesterol
  kcat (conversion of sterol to pregnenolone): 0.12 s⁻¹
40-fold excess Adx
  kcat for conversion to pregnenolone: 6.9 nmol product formed min^−1 (nmol P450)^−1
Substrate 7.5 µM
  rate of pregnenolone formation: 1.32 min⁻¹ and 1.18 min⁻¹
Substrate 15 µM
  rate of pregnenolone formation: 1.88 min⁻¹ and 1.72 min⁻¹
Substrate 20 µM
  rate of pregnenolone formation: 2.38 min⁻¹ and 2.20 min⁻¹
Substrate 30 µM
  rate of pregnenolone formation: 2.47 min⁻¹ and 2.46 min⁻¹
Substrate 40 µM
  rate of pregnenolone formation: 3.96 min⁻¹ and 3.88 min⁻¹
Substrate 50 µM
  rate of pregnenolone formation: 4.06 min⁻¹ and 4.00 min⁻¹
Substrate 75 µM
  rate of pregnenolone formation: 4.99 min⁻¹ and 4.93 min⁻¹
Substrate 100 µM
  rate of pregnenolone formation: 5.93 min⁻¹ and 4.92 min⁻¹
Substrate 150 µM
  rate of pregnenolone formation: 4.83 min⁻¹ and 5.08 min⁻¹

## CC(C)CC[C@H](O)[C@](C)(O)[C@H]1CC[C@H]2[C@@H]3CC=C4C[C@@H](O)CC[C@]4(C)[C@H]3CC[C@]12C [20R,22S-(OH)2 Chol, (20R,22S)-Cholest-5-ene 3β,20,22-triol]
  Km: 15 ± 2 µM
  kcat: 5.0 ± 0.2 min⁻¹
  kcat (conversion of sterol to pregnenolone): 0.083 ± 0.003 s⁻¹
Steady state
  kcat lower than native diol 20R,22R-(OH)2 cholesterol: ~3 fold
Substrate 7.5 µM, listed as 20R,22S-(OH)2 Cholesterol
  rate of pregnenolone formation: 2.07 min⁻¹ and 1.68 min⁻¹
Substrate 15 µM, listed as 20R,22S-(OH)2 Cholesterol
  rate of pregnenolone formation: 1.97 min⁻¹ and 1.99 min⁻¹
Substrate 20 µM, listed as 20R,22S-(OH)2 Cholesterol
  rate of pregnenolone formation: 2.93 min⁻¹ and 2.88 min⁻¹
Substrate 30 µM, listed as 20R,22S-(OH)2 Cholesterol
  rate of pregnenolone formation: 3.59 min⁻¹ and 3.11 min⁻¹
Substrate 40 µM, listed as 20R,22S-(OH)2 Cholesterol
  rate of pregnenolone formation: 3.90 min⁻¹ and 4.10 min⁻¹
Substrate 50 µM, listed as 20R,22S-(OH)2 Cholesterol
  rate of pregnenolone formation: 3.70 min⁻¹ and 3.57 min⁻¹
Substrate 75 µM, listed as 20R,22S-(OH)2 Cholesterol
  rate of pregnenolone formation: 4.16 min⁻¹ and 4.38 min⁻¹
Substrate 100 µM, listed as 20R,22S-(OH)2 Cholesterol
  rate of pregnenolone formation: 4.14 min⁻¹ and 4.09 min⁻¹
Substrate 150 µM, listed as 20R,22S-(OH)2 Cholesterol
  rate of pregnenolone formation: 4.64 min⁻¹ and 4.37 min⁻¹
